Columns and labels:
Type in all cases: in vivo
[1] = test system: Lolium multiflorum (LOLMU); experiment: greenhouse post-emergence herbicidal efficacy against LOLMU; conditions: 21 days after application
Summary of the method: (§1)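 Seeds sown in 8 cm pots of sandy loam soil and grown in a greenhouse; treatments sprayed post-emergence at 300 L/ha. Visual damage scored against untreated plants at 14 and 21 days (0% no effect, 100% complete kill); mixture values compared with Colby expected values to assign synergism, additivity or antagonism.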

Setaria viridis (SETVI) = experiment: greenhouse post-emergence herbicidal efficacy against SETVI
Summary of the method: (§2)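 Seeds sown in sandy loam pots were sprayed post-emergence in the greenhouse at 300 L/ha with combinations or single active ingredients. Visual damage versus untreated plants scored 0–100% at 14 and 21 days.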

[2] = test system: Chenopodium album (CHEAL); experiment: greenhouse post-emergence herbicidal efficacy against CHEAL
Summary of the method: as §2

[3] = test system: Matricaria inodora (MATIN); experiment: greenhouse post-emergence herbicidal efficacy against MATIN; conditions: 14 days after application
Summary of the method: as §1

Poa annua (POAAN) = experiment: greenhouse post-emergence herbicidal efficacy against POAAN
Summary of the method: as §1

Kochia scoparia (KCHSC) = experiment: greenhouse post-emergence herbicidal efficacy against KCHSC
Summary of the method: as §2

Bromus sterilis (BROST) = experiment: greenhouse post-emergence herbicidal efficacy against BROST; conditions: 21 days after application
Summary of the method: as §1

[4] = test system: Polygonum convolvulus (POLCO); experiment: greenhouse post-emergence herbicidal efficacy against POLCO; conditions: 21 days after application
Summary of the method: as §1

Solanum nigrum (SOLNI) = experiment: greenhouse post-emergence herbicidal efficacy against SOLNI
Summary of the method: as §2

Eleusine indica (ELEIN) = experiment: greenhouse post-emergence herbicidal efficacy against ELEIN
Summary of the method: as §2

DIGSA = experiment: greenhouse post-emergence herbicidal efficacy against DIGSA; conditions: 14 days after application
Method: (§3) All trials whose results are shown were conducted in a greenhouse by the methodology specified below. The effect of the inventive herbicidal compositions was examined on the following harmful plants 14 and 21 days after application:
(§4) The harmful plant seeds were sown in pots (diameter 8 cm) with sandy loam soil and germinated under optimal conditions. The inventive herbicidal compositions or the active ingredients alone were applied post-emergence to the planted pots with a spray volume of 300 L/ha. The trial was conducted in a greenhouse under optimum growth conditions. The herbicidal effects were assessed visually by comparison of untreated and treated plants. The percentages mean: 0%=no effects, 100%=the plants die off completely). The percentages are used to calculate interactions between individual treatments and combination treatments according to S. R. Colby, Weeds 15, pages 20 to 22 (1967).
(§5) The abbreviations mean: • a.i.=active ingredient • E^C=expected value according to Colby (E^C=A+B−A×B/100) • Diff: =difference (%) of measured value from expected value (%) (measured value minus expected value)
(§6) Assessment: • measured value E is greater than E^C:->synergism (+ diff.) • measured value E equals E^C:->additive effect • measured value E is smaller than E^C:->antagonism(− diff.)

Avena fatua (AVEFA) = experiment: greenhouse post-emergence herbicidal efficacy against AVEFA
Summary of the method: as §1

[5] = test system: Amaranthus retroflexus (AMARE); experiment: greenhouse post-emergence herbicidal efficacy against AMARE
Method: as §3
Echinochloa crus-galli (ECHCG), Eleusine indica (ELEIN), Setaria viridis (SETVI), Amaranthus retroflexus (AMARE), Chenopodium album (CHEAL), Kochia scoparia (KCHSC), Solanum nigrum (SOLNI), Avena fatua (AVEFA), Bromus sterilis (BROST), Lolium multiflorum (LOLMU), Phalaris minor (PHAMI), Poa annua (POAAN), Galium aparine (GALAP), Matricaria inodora (MATIN) and Polygonum convolvulus (POLCO).
as §4, §5, §6

[6] = test system: Echinochloa crus-galli (ECHCG); experiment: greenhouse post-emergence herbicidal efficacy against ECHCG
Summary of the method: as §2

Galium aparine (GALAP) = experiment: greenhouse post-emergence herbicidal efficacy against GALAP; conditions: for Efficacy: 14 days after application
Summary of the method: as §1

Phalaris minor (PHAMI) = experiment: greenhouse post-emergence herbicidal efficacy against PHAMI
Summary of the method: as §1

[7] = g of a.i./ha: A1-13 10, indaziflam 10
[8] = g of a.i./ha: A1-13 10, mesosulfuron-methyl 10
[9] = 14 days after application, 0.1 g of a.i./ha
[10] = 14 days after application, 0.4 g of a.i./ha
[11] = 21 days after application, 0.1 g of a.i./ha
[12] = 21 days after application, 0.4 g of a.i./ha
[13] = 21 days after application; 0.1 g of a.i./ha
[14] = 21 days after application; 0.4 g of a.i./ha
[15] = g of a.i./ha: A1-13 2.5, indaziflam 10
[16] = 14 days after application, 2.5 g of a.i./ha
[17] = 14 days after application, 10 g of a.i./ha
[18] = 21 days after application, dosage 10 g of a.i./ha
[19] = 21 days after application, g of a.i./ha: A1-13 2.5, mesosulfuron-methyl 10
[20] = g of a.i./ha: A1-13 2.5, mesosulfuron-methyl 10
[21] = 21 days after application, g of a.i./ha: A1-13 2.5, indaziflam 40
[22] = 21 days after application, g of a.i./ha: A1-13 10, indaziflam 40
[23] = 21 days after application, g of a.i./ha: A1-13 10, mesosulfuron-methyl 10
[24] = 14 days after application; 5 g of a.i./ha
[25] = 14 days after application; 20 g of a.i./ha
[26] = 21 days after application; 5 g of a.i./ha
[27] = 21 days after application; 20 g of a.i./ha
[28] = 14 days after application, 5 g of a.i./ha
[29] = 14 days after application, 20 g of a.i./ha
[30] = 21 days after application, 5 g of a.i./ha
[31] = 21 days after application, 20 g of a.i./ha

Cc1nnc(NC(=O)c2ccc(C(F)(F)F)c(S(C)(=O)=O)c2C)o1 [A1-13]
Efficacy [1, 7]: 5% | Efficacy [1, 8]: 5% | Efficacy (Setaria viridis (SETVI); [9]): 0% | Efficacy (Setaria viridis (SETVI); [10]): 10% | Efficacy (Setaria viridis (SETVI); [11]): 0% | Efficacy (Setaria viridis (SETVI); [12]): 10% | Efficacy (Setaria viridis (SETVI); [13]): 0% | Efficacy (Setaria viridis (SETVI); [14]): 10% | Efficacy [2, 9]: 0% | Efficacy [2, 10]: 10% | Efficacy [2, 11]: 0% | Efficacy ([3]; 2.5 g of a.i./ha): 30% | Efficacy ([3]; 10 g of a.i./ha): 40% | Efficacy [3, 15]: 30% | Efficacy [3, 7]: 40% | Efficacy (Poa annua (POAAN); [16]): 20% | Efficacy (Poa annua (POAAN); [17]): 40% | Efficacy against POAAN (Poa annua (POAAN); [18]): 20% | Efficacy (Poa annua (POAAN); [19]): 10% | Efficacy (Kochia scoparia (KCHSC); [9]): 0% | Efficacy (Kochia scoparia (KCHSC); [10]): 0% | Efficacy (Kochia scoparia (KCHSC); [12]): 0% | Efficacy (Kochia scoparia (KCHSC); [13]): 0% | Efficacy (Kochia scoparia (KCHSC); [14]): 0% | Efficacy (Bromus sterilis (BROST); g of a.i./ha: A1-13 2.5, mesosulfuron-methyl 2.5): 0% | Efficacy (Bromus sterilis (BROST); [20]): 0% | Efficacy (Bromus sterilis (BROST); [7]): 5% | Efficacy (Bromus sterilis (BROST); [8]): 5% | Efficacy [4, 20]: 0% | Efficacy [4, 8]: 0% | Efficacy (Solanum nigrum (SOLNI); [9]): 10% | Efficacy (Solanum nigrum (SOLNI); [10]): 20% | Efficacy (Solanum nigrum (SOLNI); [12]): 10% | Efficacy (Eleusine indica (ELEIN); [10]): 20% | Efficacy (Eleusine indica (ELEIN); [11]): 0% | Efficacy (Eleusine indica (ELEIN); [12]): 10% | Efficacy (Eleusine indica (ELEIN); [13]): 0% | Efficacy (Eleusine indica (ELEIN); [14]): 10% | Efficacy (DIGSA; 0.4 g of a.i./ha): 0% | Efficacy (Avena fatua (AVEFA); [17]): 35% | Efficacy (Avena fatua (AVEFA); [21]): 0% | Efficacy (Avena fatua (AVEFA); [19]): 0% | Efficacy (Avena fatua (AVEFA); [22]): 3% | Efficacy (Avena fatua (AVEFA); [23]): 3% | Efficacy [5, 10]: 0% | Efficacy [5, 12]: 10% | Efficacy [6, 9]: 0% | Efficacy [6, 10]: 0% | Efficacy [6, 11]: 0% | Efficacy [6, 12]: 0% | Efficacy [6, 13]: 0% | Efficacy [6, 14]: 0% | Efficacy (Galium aparine (GALAP); 10 g of a.i./ha): 50% | Efficacy (Galium aparine (GALAP); [15]): 40% | Efficacy (Galium aparine (GALAP); g of a.i./ha: A1-13 10, indaziflam 40): 50% | Efficacy against GALAP (Galium aparine (GALAP); [18]): 60% | Efficacy (Phalaris minor (PHAMI); [16]): 30% | Efficacy (Phalaris minor (PHAMI); [17]): 30% | Efficacy (Phalaris minor (PHAMI); 14 days after application, g of a.i./ha: A1-13 2.5, indaziflam 40): 30% | Efficacy (Phalaris minor (PHAMI); 14 days after application, g of a.i./ha: A1-13 10, indaziflam 40): 30% | Efficacy (Phalaris minor (PHAMI); [21]): 15% | Efficacy (Phalaris minor (PHAMI); 21 days after application, g of a.i./ha: A1-13 2.5, mesosulfuron-methyl 2.5): 15% | Efficacy (Phalaris minor (PHAMI); [19]): 15% | Efficacy (Phalaris minor (PHAMI); [22]): 20% | Efficacy (Phalaris minor (PHAMI); [23]): 20%

CSc1nnc(C(C)(C)C)c(=O)n1N [metribuzin]
Efficacy (Setaria viridis (SETVI); [24]): 10% | Efficacy (Setaria viridis (SETVI); [25]): 30% | Efficacy (Setaria viridis (SETVI); [26]): 0% | Efficacy (Setaria viridis (SETVI); [27]): 0% | Efficacy [2, 28]: 30% | Efficacy [2, 29]: 30% | Efficacy [2, 30]: 20% | Efficacy [2, 31]: 20% | Efficacy (Kochia scoparia (KCHSC); [24]): 20% | Efficacy (Kochia scoparia (KCHSC); [25]): 20% | Efficacy (Kochia scoparia (KCHSC); [26]): 0% | Efficacy (Kochia scoparia (KCHSC); [27]): 10% | Efficacy (Solanum nigrum (SOLNI); [28]): 0% | Efficacy (Solanum nigrum (SOLNI); [29]): 0% | Efficacy (Solanum nigrum (SOLNI); [30]): 0% | Efficacy (Solanum nigrum (SOLNI); [31]): 0% | pest or weed control at 5 g/ha (Eleusine indica (ELEIN); Eleusine indica, post-emergence, 336 h; 14 days after application, 5 g of a.i./ha): 10% | pest or weed control at 20 g/ha (Eleusine indica (ELEIN); Eleusine indica, post-emergence, 336 h; 14 days after application, 20 g of a.i./ha): 20% | pest or weed control at 5 g/ha (Eleusine indica (ELEIN); Eleusine indica, post-emergence, 504 h; 21 days after application; 5 g of a.i./ha): 0% | pest or weed control at 20 g/ha (Eleusine indica (ELEIN); Eleusine indica, post-emergence, 504 h; 21 days after application; 20 g of a.i./ha): 0% | Efficacy (DIGSA; 5 g of a.i./ha): 0% | Efficacy (DIGSA; 20 g of a.i./ha): 20% | Efficacy [5, 28]: 20% | Efficacy [5, 29]: 30% | Efficacy [5, 30]: 0% | Efficacy [5, 31]: 10% | Efficacy [6, 24]: 10% | Efficacy [6, 25]: 30% | Efficacy [6, 26]: 0% | Efficacy [6, 27]: 0%

From patent publication US10111435B2, “Herbicidal compositions containing N-(1,3,4-oxadiazol-2-yl)-aryl carboxylic acid amides” (BAYER CROPSCIENCE AKTIENGESELLSCHAFT, priority 2013, dated 2018)
